Experimental findings from patent US20250333418A1, “PURINE COMPOUNDS, COMPOSITIONS COMPRISING THEM AND USES THEREOF” (Novo Nordisk A/S, priority 2022, published 2025) are described below.

Molecules are shown by their SMILES.

The target in assay [1] is T1, human CB1 receptor (Homo sapiens, UniProt P21554).
T1 construct: expressed in transfected cells; host or cells: HEK293
The assay can be described thus: bioSensAll β-arrestin2 plasma membrane translocation (+GRK2) BRET biosensor assay in HEK293 cells transfected with hCB1; test compound added before EC75-80 of agonist CP55,940 (100 nM). The assay is classed as cell-based. Conditions: βArrestin2 (+GRK2) BRET biosensor, vs CP55,940 100 nM (EC75-80), read-out: CB1 wt βarr2 IC50. In a few lines: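 Antagonist mode: compound at 12 concentrations up to 600 nM, then 100 nM CP55,940 3–5 min later, on hCB1-transfected HEK293 cells carrying the β-arrestin2 plasma-membrane biosensor plus GRK2. After overnight 37 °C incubation, 515/400 nm BRET ratio measured with 2 µM methoxy e-CTZ and standardized against positive/negative controls.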
For orientation: Bioluminescence resonance energy transfer reports proximity on the nanometre scale.

Assay [2] addresses T1, human CB1 receptor. The assay can be described thus: bioSensAll GAPL-Gi2 BRET biosensor assay in HEK293 cells transfected with hCB1; test compound added before EC75-80 of agonist CP55,940 (0.1 nM). The class given is cell-based. The note with it: vs CP55,940 0.1 nM (EC75-80), read-out: CB1 wt Gi2 IC50. An outline of the steps:
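Test compounds at 12 doses up to 600 nM preceded a 0.1 nM CP55,940 challenge in hCB1/GAPL-Gi2 HEK293 cells. After overnight 37° C incubation, methoxy e-coelenterazine (2 µM final) was added and the 515/400 nm BRET ratio normalized to positive and negative controls.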

T1 sequence (P21554 whole entry): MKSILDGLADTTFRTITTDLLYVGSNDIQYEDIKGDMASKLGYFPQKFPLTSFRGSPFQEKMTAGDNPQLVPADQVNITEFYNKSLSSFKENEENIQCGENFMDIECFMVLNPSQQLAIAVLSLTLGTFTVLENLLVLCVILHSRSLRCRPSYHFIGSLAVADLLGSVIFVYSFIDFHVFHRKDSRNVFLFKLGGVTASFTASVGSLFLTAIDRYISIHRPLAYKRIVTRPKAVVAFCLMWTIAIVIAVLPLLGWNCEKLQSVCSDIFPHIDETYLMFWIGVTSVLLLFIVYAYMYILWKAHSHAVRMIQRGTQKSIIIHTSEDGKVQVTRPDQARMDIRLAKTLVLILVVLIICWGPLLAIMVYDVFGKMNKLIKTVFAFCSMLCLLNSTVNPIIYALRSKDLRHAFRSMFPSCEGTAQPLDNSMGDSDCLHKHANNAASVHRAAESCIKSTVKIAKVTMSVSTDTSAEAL

In the case of `CC(C)OC1(C(N)=O)CCN(c2nc(N3CCC[C@H]3CO)nc3c2nc(-c2ccc(C#N)nc2)n3-c2ccc(Cl)cc2)CC1` [Compound 136, 1-[9-(4-chlorophenyl)-8-(6-cyano-3-pyridyl)-2-[(2S)-2-(hydroxymethyl)pyrrolidin-1-yl]purin-6-yl]-4-isopropoxy-piperidine-4-carboxamide], the IC50 – broadly, the point on the concentration scale where inhibition reaches its midpoint – in assay [1] is 1.75 nM; in assay [2], 0.848 nM.
On the same counts, the results for `CC(C)(O)COc1nc(N2CC(C)(C(N)=O)C2)c2nc(-c3ccc(C#N)nc3)n(-c3ccc(Cl)cc3)c2n1` [Compound 138] are above 5000 nM and 34.1 nM.
Regarding `CCOC1(C(N)=O)CN(c2nc(OCC(C)(C)O)nc3c2nc(-c2ccc(C#N)nc2)n3-c2ccc(Cl)cc2)C1` [Compound 139, 1-[9-(4-chlorophenyl)-8-(6-cyano-3-pyridyl)-2-(2-hydroxy-2-methyl-propoxy)purin-6-yl]-3-ethoxy-azetidine-3-carboxamide], the IC50 in assay [1] amounted to 58.8 nM; in assay [2], 7.55 nM.
`N#Cc1ccc(-c2nc3c(N4CC(C(N)=O)C4)nc(N4CCC[C@H]4CO)nc3n2-c2ccc(Cl)cc2)cn1` [Compound 140]: the IC50 in assay [1] was 8.69 nM; in assay [2] it was 1.22 nM.
With `CCNC1(C(N)=O)CCN(c2nc(NCCO)nc3c2nc(-c2ccccc2Cl)n3-c2ccc(Cl)cc2)CC1` [Compound 141], the IC50 in assay [1] came to 2.28 nM; in assay [2], 0.982 nM.
`CCNC1(C(N)=O)CCN(c2nc(OCCO)nc3c2nc(-c2ccccc2Cl)n3-c2ccc(Cl)cc2)CC1` [Compound 142]: the figures for the IC50 in assay [1] and in assay [2] were 2.6 nM and 0.892 nM, respectively.
For `CCNC1(C(N)=O)CCN(c2nc(N3CCC[C@H]3CO)nc3c2nc(-c2ccccc2Cl)n3-c2ccc(Cl)cc2)CC1` [Compound 143], in that order: 1.59 nM and 0.837 nM.
As for `CCNC1(C(N)=O)CCN(c2nc(Cl)nc3c2nc(-c2ccccc2Cl)n3-c2ccc(Cl)cc2)CC1` [Compound 144, 1-(2-chloro-8-(2-chlorophenyl)-9-(4-chlorophenyl)-9H-purin-6-yl)-4-(ethylamino)piperidine-4-carboxamide], the IC50 in assay [1] is 6.22 nM; in assay [2], 1.35 nM.
For `CCNC1(C(N)=O)CCN(c2nc(NC(C)=O)nc3c2nc(-c2ccccc2Cl)n3-c2ccc(Cl)cc2)CC1` [Compound 145], in that order: 3 nM and 0.973 nM.
On to `CCNC1(C(N)=O)CCN(c2nc(C#N)nc3c2nc(-c2ccccc2Cl)n3-c2ccc(Cl)cc2)CC1` [Compound 146, 1-(8-(2-chlorophenyl)-9-(4-chlorophenyl)-2-cyano-9H-purin-6-yl)-4-(ethylamino)piperidine-4-carboxamide], for which the IC50 turned out to be 1.62 nM in assay [1] and 0.718 nM in assay [2].
Turning to `CCNC1(C(N)=O)CCN(c2nc(C(N)=O)nc3c2nc(-c2ccccc2Cl)n3-c2ccc(Cl)cc2)CC1` [Compound 147, 6-(4-carbamoyl-4-(ethylamino)piperidin-1-yl)-8-(2-chlorophenyl)-9-(4-chlorophenyl)-9H-purine-2-carboxamide], the values for the IC50 in assay [1] and in assay [2] were 88.8 nM and 4.1 nM, respectively.
In the case of `CCNC1(C(N)=O)CCN(c2nc(N(C)CCO)nc3c2nc(-c2ccccc2Cl)n3-c2ccc(Cl)cc2)CC1` [Compound 148], the IC50 turned out to be 1.49 nM in assay [1] and 1 nM in assay [2].
In the case of `CCNC1(C(N)=O)CCN(c2nc(N)nc3c2nc(-c2ccccc2Cl)n3-c2ccc(Cl)cc2)CC1` [Compound 149], the IC50 is above 5000 nM in assay [1] and 8.93 nM in assay [2].
On the same counts, the results for `CCNC1(C(N)=O)CCN(c2nc(N3CCCCC3)nc3c2nc(-c2ccccc2Cl)n3-c2ccc(Cl)cc2)CC1` [Compound 150] are 8.17 nM and 2.67 nM.
Consider `CCNC1(C(N)=O)CCN(c2nc(NCc3ccccc3)nc3c2nc(-c2ccccc2Cl)n3-c2ccc(Cl)cc2)CC1` [Compound 151], for which the IC50 stood at 12.9 nM in assay [1] and 4.46 nM in assay [2].
Consider `CCNC1(C(N)=O)CCN(c2nc(-n3ccnc3)nc3c2nc(-c2ccccc2Cl)n3-c2ccc(Cl)cc2)CC1` [Compound 152], for which the IC50 turned out to be 1.2 nM in assay [1] and 0.716 nM in assay [2].
On the same counts, the results for `CCNC1(C(N)=O)CCN(c2nc(N3CCC(CO)C3)nc3c2nc(-c2ccccc2Cl)n3-c2ccc(Cl)cc2)CC1` (stereo not drawn) [Compound 153] are 1.29 nM and 0.503 nM.
Turning to `NC(=O)C1CCN(c2nc(N3CCC[C@H]3CO)nc3c2nc(-c2ccccc2Cl)n3-c2ccc(Cl)cc2)CC1` [Compound 154], the IC50 in assay [1] was 7.28 nM; in assay [2], 0.813 nM.
For `CN(CCO)c1nc(N2CCC(C(N)=O)CC2)c2nc(-c3ccccc3Cl)n(-c3ccc(Cl)cc3)c2n1` [Compound 155], the IC50 is 14.8 nM in assay [1] and 1.01 nM in assay [2].
Regarding `CNCCOc1nc(N2CCC(C(N)=O)CC2)c2nc(-c3ccccc3Cl)n(-c3ccc(Cl)cc3)c2n1` [Compound 156], the IC50 was above 5000 nM in assay [1] and 54.7 nM in assay [2].
With `CN(CCO)c1nc(N2CCN(C(N)=O)CC2)c2nc(-c3ccccc3Cl)n(-c3ccc(Cl)cc3)c2n1` [Compound 157], the IC50 in assay [1] came out at 6.04 nM; in assay [2], 0.938 nM.
`CN(CCO)c1nc(N2CCC(C)(C(N)=O)CC2)c2nc(-c3ccccc3Cl)n(-c3ccc(Cl)cc3)c2n1` [Compound 158, 1-[8-(2-chlorophenyl)-9-(4-chlorophenyl)-2-((2-hydroxyethyl)(methyl)amino)-purin-6-yl]-4-methyl-piperidine-4-carboxamide]: the IC50 was 0.931 nM in assay [1] and 0.555 nM in assay [2].
As for `CC1(C(N)=O)CCN(c2nc(OC[C@@H]3CCCN3)nc3c2nc(-c2ccccc2Cl)n3-c2ccc(Cl)cc2)CC1` [Compound 160, 1-[8-(2-chlorophenyl)-9-(4-chlorophenyl)-2-((2S)-pyrrolidinemethoxy)-purin-6-yl]-4-methyl-piperidine-4-carboxamide], the half-maximal inhibitory concentration (IC50) came to 21.7 nM in assay [1] and 0.868 nM in assay [2].
Take `CN(CCO)c1nc(N2CCC(C(F)(F)F)CC2)c2nc(-c3ccccc3Cl)n(-c3ccc(Cl)cc3)c2n1` [Compound 161, 1-[[8-(2-chlorophenyl)-9-(4-chlorophenyl)-6-[4-(trifluoromethyl)-1-piperidyl]purin-2-yl]-methyl-amino]-ethan-2-ol]: the IC50 in assay [1] turned out to be 1.53 nM; in assay [2] it was 0.95 nM.
For the compound `OC[C@@H]1CCCN1c1nc(N2CCC(C(F)(F)F)CC2)c2nc(-c3ccccc3Cl)n(-c3ccc(Cl)cc3)c2n1` [Compound 162, [(2S)-1-[8-(2-chlorophenyl)-9-(4-chlorophenyl)-6-[4-(trifluoromethyl)-1-piperidyl]purin-2-yl]pyrrolidin-2-yl]methanol], the results for the IC50 in assay [1] and in assay [2] were 1.83 nM and 1.3 nM, respectively.
In the case of `OC[C@@H]1CCCN1c1nc(-c2ccc(C(F)(F)F)nc2)c2nc(-c3ccccc3Cl)n(-c3ccc(Cl)cc3)c2n1` [Compound 163], the values for the IC50 in assay [1] and in assay [2] were 2.78 nM and 0.491 nM, respectively.
For `O=S1(=O)CCC(Nc2nc(-n3ccnc3)nc3c2nc(-c2ccccc2Cl)n3-c2ccc(Cl)cc2)CC1` [Compound 164], in that order: 22.8 nM and 1.66 nM.
For `CN(CCO)c1nc(-c2ccc(C(F)(F)F)nc2)c2nc(-c3ccccc3Cl)n(-c3ccc(Cl)cc3)c2n1` [Compound 165], in that order: 2.03 nM and 0.413 nM.
For the compound `O=S1(=O)CCC(Nc2nc(N3CCC[C@H]3CO)nc3c2nc(-c2ccccc2Cl)n3-c2ccc(Cl)cc2)CC1` [Compound 166], the IC50 in assay [1] was 1.4 nM; in assay [2], 0.308 nM.
For the compound `CN(CCO)c1nc(NC2CCS(=O)(=O)CC2)c2nc(-c3ccccc3Cl)n(-c3ccc(Cl)cc3)c2n1` [Compound 167], the 50% inhibitory concentration (IC50) in assay [1] was 4.39 nM; in assay [2] it was 0.421 nM.
With `CN1CCN(c2nc(N(C)CCO)nc3c2nc(-c2ccccc2Cl)n3-c2ccc(Cl)cc2)CC1` [Compound 168], the figures for the IC50 in assay [1] and in assay [2] were 12 nM and 1.93 nM, respectively.
Take `OC[C@@H]1CN(c2nc(N3CCC[C@H]3CO)nc3c2nc(-c2ccccc2Cl)n3-c2ccc(Cl)cc2)CCO1` [Compound 169]: the IC50 came to 2.04 nM in assay [1] and 0.532 nM in assay [2].
As to `CN(CCO)c1nc(N2CCO[C@H](CO)C2)c2nc(-c3ccccc3Cl)n(-c3ccc(Cl)cc3)c2n1` [Compound 170], the figures for the IC50 in assay [1] and in assay [2] were 3.49 nM and 0.597 nM, respectively.
For `COC(=O)N1CCN(c2nc(N(C)CCO)nc3c2nc(-c2ccccc2Cl)n3-c2ccc(Cl)cc2)CC1` [Compound 173], in that order: 1.51 nM and 0.419 nM.
Take `CN(CCO)c1nc(NC2CN(C(N)=O)C2)c2nc(-c3ccccc3Cl)n(-c3ccc(Cl)cc3)c2n1` [Compound 176]: the 50% inhibitory concentration (IC50) is above 5000 nM in assay [1] and 15.6 nM in assay [2].
Consider `CCOC1(C(N)=O)CCN(c2nc(N3CCC[C@H]3CO)nc3c2nc(-c2ccccc2Cl)n3-c2ccc(Cl)cc2)CC1` [Compound 177], for which the IC50 amounted to 1.88 nM in assay [1] and 0.436 nM in assay [2].
`CN(CCO)c1nc(NC2CCOCC2)c2nc(-c3ccccc3Cl)n(-c3ccc(Cl)cc3)c2n1` [Compound 178]: the IC50 in assay [1] amounted to 4.04 nM; in assay [2] it was 0.544 nM.
On the same counts, the results for `CN(CCO)c1nc(NC2CN(C(=O)C(F)(F)F)C2)c2nc(-c3ccccc3Cl)n(-c3ccc(Cl)cc3)c2n1` [Compound 179] are 1.92 nM and 0.244 nM.
On the same counts, the results for `CN(CCO)c1nc(N2CCC(C)(O)CC2)c2nc(-c3ccccc3Cl)n(-c3ccc(Cl)cc3)c2n1` [Compound 181] are 0.592 nM and 0.181 nM.
